Data as given in ChEMBL document CHEMBL4373715, “Discovery and Biological Evaluations of Halogenated 2,4-Diphenyl Indeno[1,2-b]pyridinol Derivatives as Potent Topoisomerase IIα-Targeted Chemotherapeutic Agents for Breast Cancer” (J Med Chem, 2019).
Activity calls are given as the source filed them. No cut-off for these calls is given here.

Columns and labels:
[1] = target: T1, DNA topoisomerase 1 (Homo sapiens) (UniProt P11387); assay: Inhibition of recombinant human topoisomerase 1-mediated relaxation of supercoiled pBR322 DNA at 100 uM measured after 30 mins by ethidium bromide staining based agarose gel electrophoresis relative to control
T1 sequence (whole entry): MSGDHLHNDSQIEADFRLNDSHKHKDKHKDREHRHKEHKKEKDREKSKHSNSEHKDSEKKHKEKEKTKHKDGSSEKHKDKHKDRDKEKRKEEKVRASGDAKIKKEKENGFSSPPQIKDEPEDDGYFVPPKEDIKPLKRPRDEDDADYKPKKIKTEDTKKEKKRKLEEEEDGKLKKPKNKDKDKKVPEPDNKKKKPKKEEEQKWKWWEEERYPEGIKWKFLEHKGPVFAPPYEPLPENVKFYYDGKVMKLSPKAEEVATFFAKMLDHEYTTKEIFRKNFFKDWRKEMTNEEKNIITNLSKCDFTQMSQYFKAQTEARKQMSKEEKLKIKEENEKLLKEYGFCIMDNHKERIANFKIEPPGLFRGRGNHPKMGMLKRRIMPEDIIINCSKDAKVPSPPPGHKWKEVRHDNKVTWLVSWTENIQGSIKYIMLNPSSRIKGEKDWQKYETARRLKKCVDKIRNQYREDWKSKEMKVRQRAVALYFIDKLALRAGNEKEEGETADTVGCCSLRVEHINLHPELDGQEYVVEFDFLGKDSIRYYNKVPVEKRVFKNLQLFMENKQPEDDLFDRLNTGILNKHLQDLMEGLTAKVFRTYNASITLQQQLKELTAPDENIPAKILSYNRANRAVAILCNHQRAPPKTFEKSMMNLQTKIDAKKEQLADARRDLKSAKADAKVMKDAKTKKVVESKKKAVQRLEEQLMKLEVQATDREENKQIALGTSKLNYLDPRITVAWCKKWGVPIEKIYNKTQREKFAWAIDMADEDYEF

[2] = Stability in mouse plasma assessed as parent compound remaining at 1 mM measured after 2 hrs by LC-MS/MS analysis; type: ADME, cell-free; conditions: 1000 µM
[3] = target: DNA topoisomerase 2-alpha (Homo sapiens) (UniProt P11388); assay: Inhibition of recombinant human topoisomerase 2alpha-mediated relaxation of supercoiled pBR322 DNA at 100 uM measured after 30 mins by ethidium bromide staining based agarose gel electrophoresis relative to control
DNA topoisomerase 2-alpha (Homo sapiens), sequence (P11388 whole entry): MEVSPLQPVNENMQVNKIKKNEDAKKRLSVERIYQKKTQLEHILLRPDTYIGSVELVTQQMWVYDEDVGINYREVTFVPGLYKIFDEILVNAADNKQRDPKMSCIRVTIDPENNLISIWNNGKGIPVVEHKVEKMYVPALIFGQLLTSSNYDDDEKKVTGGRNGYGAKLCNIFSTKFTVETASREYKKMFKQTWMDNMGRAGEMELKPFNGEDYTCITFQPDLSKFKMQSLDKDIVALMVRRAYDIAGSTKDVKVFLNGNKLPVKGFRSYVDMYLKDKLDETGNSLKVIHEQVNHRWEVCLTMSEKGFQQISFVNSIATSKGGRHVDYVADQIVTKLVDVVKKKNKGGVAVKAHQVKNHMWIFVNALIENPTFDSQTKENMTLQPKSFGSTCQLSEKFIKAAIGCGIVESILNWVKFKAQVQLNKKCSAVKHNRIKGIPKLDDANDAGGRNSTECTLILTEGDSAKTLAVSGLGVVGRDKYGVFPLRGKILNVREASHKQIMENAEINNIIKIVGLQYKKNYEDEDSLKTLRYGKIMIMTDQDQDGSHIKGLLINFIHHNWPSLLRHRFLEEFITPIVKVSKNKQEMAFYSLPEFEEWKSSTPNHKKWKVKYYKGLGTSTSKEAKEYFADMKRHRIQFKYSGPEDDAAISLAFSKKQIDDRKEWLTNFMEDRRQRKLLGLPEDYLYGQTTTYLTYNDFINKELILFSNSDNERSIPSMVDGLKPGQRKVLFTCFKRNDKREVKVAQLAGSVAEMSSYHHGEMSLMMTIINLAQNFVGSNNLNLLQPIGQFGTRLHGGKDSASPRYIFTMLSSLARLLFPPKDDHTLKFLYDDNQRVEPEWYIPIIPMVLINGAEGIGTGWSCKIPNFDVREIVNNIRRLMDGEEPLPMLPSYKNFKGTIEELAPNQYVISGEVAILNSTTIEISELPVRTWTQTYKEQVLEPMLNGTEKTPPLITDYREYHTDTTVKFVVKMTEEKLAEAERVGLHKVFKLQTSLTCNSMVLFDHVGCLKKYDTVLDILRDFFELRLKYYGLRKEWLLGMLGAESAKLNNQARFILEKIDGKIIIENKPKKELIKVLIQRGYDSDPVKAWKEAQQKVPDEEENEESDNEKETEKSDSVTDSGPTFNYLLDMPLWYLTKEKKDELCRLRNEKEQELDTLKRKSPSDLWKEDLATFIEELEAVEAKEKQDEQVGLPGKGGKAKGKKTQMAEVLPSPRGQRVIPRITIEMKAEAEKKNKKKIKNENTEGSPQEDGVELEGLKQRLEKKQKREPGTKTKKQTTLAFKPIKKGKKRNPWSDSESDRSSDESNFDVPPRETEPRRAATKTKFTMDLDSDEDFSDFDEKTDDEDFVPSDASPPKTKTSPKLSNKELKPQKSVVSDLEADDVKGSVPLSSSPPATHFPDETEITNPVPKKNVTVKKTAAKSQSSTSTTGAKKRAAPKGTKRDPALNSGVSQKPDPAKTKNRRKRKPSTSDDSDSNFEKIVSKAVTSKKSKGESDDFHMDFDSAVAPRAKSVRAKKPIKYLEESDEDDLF

HCC70 = assay: Antiproliferative activity against human HCC70 cells measured after 72 hrs by Ez-cytox assay; type: functional, cell-based; conditions: HCC70, 72 h, read-out: IC50
[4] = target: DNA topoisomerase 2-alpha (Homo sapiens) (UniProt P11388); assay: Poison activity at topoisomerase-2 alpha in human T47D cells assessed as stabilization of enzyme-DNA cleavage complex by measuring reduction in topo-2alpha level at 50 uM measured after 2 hrs by Western blot analysis; type: cell-based
[5] = Toxicity in male ICR mouse assessed as mortality at 50 mg/kg, iv administered as single dose measured daily for 7 days (reference value: 0%); type: organism-based; conditions: in vivo
[6] = Toxicity in female ICR mouse assessed as mortality at 100 mg/kg, iv administered as single dose measured daily for 7 days (reference value: 0%); type: organism-based; conditions: in vivo
[7] = Stability in human plasma assessed as parent compound remaining at 1 mM measured after 1 hr by LC-MS/MS analysis; type: ADME, cell-free; conditions: read-out: Stability
[8] = Stability in human plasma assessed as parent compound remaining at 1 mM measured after 2 hrs by LC-MS/MS analysis; type: ADME, cell-free; conditions: read-out: Stability
[9] = Stability in rat plasma assessed as parent compound remaining at 1 mM measured after 4 hrs by LC-MS/MS analysis; type: ADME, cell-free; conditions: 1000 µM
[10] = Stability in mouse plasma assessed as parent compound remaining at 1 mM measured immediately by LC-MS/MS analysis; type: ADME, cell-free; conditions: read-out: Stability
HeLa = assay: Antiproliferative activity against human HeLa cells measured after 72 hrs by EZ-Cytox assay; type: functional, cell-based

Structure (SMILES): Oc1ccc(-c2cc(-c3ccccc3Cl)nc3c2Cc2c(O)cccc2-3)cc1
- inhibition [1]: 0%
- Stability [2]: 116.3%
- inhibition [3]: 100%
- IC50 (HCC70): 2080 nM
- Activity [4]: Active
- mortality at 168 h [5]: 0%
- mortality at 168 h [6]: 0%
- remaining at 1 h [7]: 104%
- remaining at 2 h [8]: 100%
- Stability [9]: 130.4%
- remaining at 0 h [10]: 100%
- IC50 (HeLa): 2460 nM
